In US4133876A, “Antibiotic A-32887 and process for production thereof” (Eli Lilly and Company, priority 1977, dated 1979):

How the values were obtained:
[1] = type: physicochemical; settings: 80% aqueous dimethylformamide
Text: Electrometric titration of A-32887 methyl ether derivative (Na salt) in 80% aqueous dimethylformamide indicates the presence of a titratable group with a pKa value of about 5.4.

[2] = system: Bacillus subtilis; assay: Conventional disc-diffusion method (Table VIII); type: cell-based; settings: as Na-K salts, samples at 1 mg/ml
Method: (§1) The antimicrobial activity of two typical A-32887 acyl ester derivatives is compared with that of A-32887 (each as Na-K salts) in Table VIII. Activity against illustrative bacteria is measured by the conventional disc-diffusion method. In addition, the results of a conventional paper-disc agar-diffusion assay system (Plate Assay) against Bacillus subtilis ATCC 6633 are reported. The activity in this test is quantitated and uses a dried-broth reference standard which is assigned an arbitrary potency of 100 units/ml. The samples were assayed at 1 mg/ml.

[3] = system: Micrococcus lutea; assay: Conventional disc-diffusion method (Table VIII); type: cell-based; settings: as Na-K salts; samples at 1 mg/ml
Method: as §1

[4] = system: Staphylococcus aureus; assay: Conventional disc-diffusion method (Table VIII); type: cell-based; settings: as Na-K salts; samples at 1 mg/ml
Method: as §1

[5] = system: Bacillus subtilis ATCC 6633; assay: Paper-disc agar-diffusion assay system (Plate Assay, Table VIII); type: cell-based; settings: samples at 1 mg/ml, as Na-K salts; dried-broth reference standard = 100 units/ml
Method: as §1

[6] = Ionophore properties

Structure (SMILES): CO[C@H]1CC[C@H](OC2[C@@H](C)[C@@](C)(O)O[C@H]([C@H]3CC[C@H]([C@@H]4CC[C@H]([C@@]5(C)O[C@]6(O[C@H](C[C@@H]7O[C@](O)([C@@H](O)C(=O)O)[C@@H](C)[C@H](OC)[C@@]7(C)OC)C[C@@H](OC)[C@H]6C)[C@H](C)[C@H]5OC)O4)O3)[C@H]2C)O[C@@H]1C.[K+].[Na+] (some centres unmarked) [A-32887]
- pKa [1]: 4.60
- Activity by disc-diffusion, Bacillus subtilis* ([2]; Minimal media): 30
- Activity by disc-diffusion, Bacillus subtilis [2]: 18
- Activity by disc-diffusion, Micrococcus lutea [3]: 16
- Activity by disc-diffusion, Staphylococcus aureus [4]: 16
- Plate Assay [5]: 1350 units/ml
- ion-binding and ion-transport properties [6]: exhibits ion-binding and iontransport properties
- cation permeability of membranes ([6]; natural and artificial membranes): alters the cation permeability
